In patent US8858952B2, “Methods and materials for generating T cells” (Mayo Foundation for Medical Education and Research, priority 2009, dated 2014):
Where no end group is shown, it is not given here. [ ]: non-standard residue; d: D form. Ava = NCCCCC(=O)O

Key:
[1] = tested on: Foxp3^+ T cells; experiment: Flow cytometry of CD4 T cell lines for FoxP3 expression; assay type: cell-based, FVB/N mice; conditions: FIG. 31
From the text: FIG. 31. […] Flow cytometry dot plots of naïve splenocytes, FR74-specific, FR74.4-specific CD4 T cell lines evaluating for FoxP3 expression. Quadrants set at isotype signal, and the lower right quadrant is percent of total cells in lymphocyte gate. T cells were derived from FVB/N mice.

[2] = tested on: FR74-specific T cells; experiment: Proliferation (thymidine incorporation) of T cells generated ex vivo with polypeptides; assay type: cell-based, FVB/N mice; conditions: thymidine incorporation against native FR74; FIG. 5
Description: FIG. 5 is a graph plotting proliferation (as measured by thymidine incorporation (CPM)) of T cells treated with the indicated polypeptides. Epitope nesting activates high affinity antigen-specific T cells. T cells were tested for incorporation against native FR74 polypeptide at various concentrations. Each data point is the mean of 3 determinations.
In terms of proliferation, only the dual modified polypeptide was able to generate T cells that were able to proliferate at 10^−9 g/mL (FIG. 5).
In order to determine whether furin cleavage is required, two methods are used: furin insensitive linkers and furin inhibitors. Blockade of enhanced ex vivo expansion mediated by the DC3 peptide using these two methods is powerful evidence, outside of a furin knockout mouse, that furin is required for the actions of DC3. Although it has already been shown that DC3 must be linked to antigen, as a control T cells are expanded using free FR74 mixed with free DC3. To test the role of furin with furin-insensitive linkers, RARR (SEQ ID NO:4) is replaced with VRVV (SEQ ID NO:41) with the polypeptides FR74.1, FR74.3, and FR74.8 as shown in FIG. 17. In parallel with these cultures, cultures are included in which inhibitors are included. […] On day 5, CPG is added to the cultures at 1 μg/mL, and the cells are ready for T cell induction on day 6. […]

FR74.4: dual conjugated polypeptide: FR74 nested between Ii-key and DC3 (Ac-LRMK[Ava]KDISYLYRFNWNHCGRARRFYPSYHSTPQRP)
expansion of Foxp3+ T cells [1]: blocks expansion of Foxp3^+ T cells | lowest peptide concentration at which generated T cells proliferate [2]: 10^−9 g/mL
